Measurements published in patent US20090155881A1, “CELL-FREE PROTEIN SYNTHESIS METHOD AND CELL-FREE PROTEIN SYNTHESIS REACTION SOLUTION USING ADENOSINE 3',5'-BISPHOSPHATE” (priority 2007, published 2009).

Test system: mRNA
Assay: mRNA degradation suppressing effect in the cell-free protein synthesis reaction solution (Transdirect insect cell); remaining mRNA detected by agarose electrophoresis and EtBr staining
Type: biochemical, Spodoptera frugiperda
Conditions: for degradation suppressing effect: after 240 minutes
Method: Using Transdirect insect cell (SHIMADZU CORPORATION), each of the following reaction solutions was prepared in a scale of 50 μL. Transdirect insect cell is a cell-free protein synthesis reaction solution containing an extract from Sf21, and contains a potassium salt, a magnesium salt, adenosine triphosphate, guanosine triphosphate, creatine phosphate, creatine kinase, an amino acid component, a tRNA, a foreign mRNA, and a buffer as ingredients other than the extract derived from Sf21.
As the RNase inhibitor, an RNase inhibitor derived from a human placenta (TAKARA BIO) was used, and as the pAp, Adenosine 3′,5′-diphosphate sodium salt (SIGMA-ALDRICH) was used, and prepared as an aqueous solution of 100 mM. Each reaction solution was subjected to a translation reaction at 25° C.
For each reaction solution, reaction solutions after 0, 60, and 120 minutes from starting of a translation reaction were recovered. 10 μL of the recovered reaction solution was collected into 20 μL of TRIzol LS Reagent (Invitrogen), and the whole RNA was extracted. The extracted RNA was dissolved in 10 μL of pure water.
To each solution of extracted RNA, 4 μL of a loading buffer (Wako Pure Chemical Industries) was added, and the total was subjected to electrophoresis (a TAE buffer, 1% agarose gel). The RNA separated by electrophoresis was detected by EtBr (ethidium bromide) staining.
By the same steps as Steps 1 to 3 of Example 1, a translation reaction was conducted for the following reaction solutions.
As for Reaction Solution 6, pAp was added before the reaction so that the final concentration was 5 mM, and after 60 minutes from starting of the reaction, 2.5 μL of a 100 mM pAp aqueous solution prepared in step 3 was added. As a result, the pAp concentration of supplemented pAp excluding the pAp that was present from the initial stage of the reaction was 5 mM.
Steps 4 and 5 as same as those in Example 1 were conducted except that for each reaction solution, the reaction solution was recovered after 0, 120, 180, and 240 minutes from starting of the translation reaction.
In Reaction Solutions 7 and 8, a 4M aqueous LiCl solution was prepared for stock, and using the stock solution, the final concentration in the reaction solution was adjusted to 50 mM.
Steps 4 and 5 were conducted in the same manner as in Example 1 except that for each reaction solution, the reaction solution was recovered after 0, 180, and 240 minutes from starting of the translation reaction.

[Cl-].[Li+] [LiCl, lithium chloride]
mRNA remaining (electrophoresis) (LiCl 50 mM alone, no pAp (lane 7), after 180 minutes): almost all the mRNA was degraded

Nc1ncnc2c1ncn2[C@@H]1O[C@H](COP(=O)(O)O)[C@@H](OP(=O)(O)O)[C@H]1O [pAp, adenosine 3′,5′-bisphosphate]
degradation suppressing effect (5 mM pAp plus supplementation of 5 mM pAp after 60 minutes (Reaction Solution 6)): sustained | RNA degradation suppressing effect (5 mM pAp, supplementation not conducted (Reaction Solution 4), after 180 minutes): lost with time | degradation suppressing effect (10 mM pAp, supplementation not conducted (Reaction Solution 5)): sustained | mRNA remaining (electrophoresis) (pAp 5 mM alone, no LiCl (lane 4), after 180 minutes): almost all the mRNA was degraded | mRNA degradation suppressing effect (pAp final concentration 5 mM, no RNase inhibitor (Reaction Solution 4), reaction times 60 and 120 minutes, 25° C.): apparent degradation suppressing effect

B1: RNase inhibitor: RNase inhibitor derived from a human placenta (TAKARA BIO) (protein, UniProt P13489 2-461, looked up)
Ribonuclease inhibitor: SLDIQSLDIQCEELSDARWAELLPLLQQCQVVRLDDCGLTEARCKDISSALRVNPALAELNLRSNELGDVGVHCVLQGLQTPSCKIQKLSLQNCCLTGAGCGVLSSTLRTLPTLQELHLSDNLLGDAGLQLLCEGLLDPQCRLEKLQLEYCSLSAASCEPLASVLRAKPDFKELTVSNNDINEAGVRVLCQGLKDSPCQLEALKLESCGVTSDNCRDLCGIVASKASLRELALGSNKLGDVGMAELCPGLLHPSSRLRTLWIWECGITAKGCGDLCRVLRAKESLKELSLAGNELGDEGARLLCETLLEPGCQLESLWVKSCSFTAACCSHFSSVLAQNRFLLELQISNNRLEDAGVRELCQGLGQPGSVLRVLWLADCDVSDSSCSSLAATLLANHSLRELDLSNNCLGDAGILQLVESVRQPGCLLEQLVLYDIYWSEEMEDRLQALEKDKPSLRVIS
mRNA degradation suppressing effect (RNase inhibitor final concentration 1 U/μL, no pAp (Reaction Solution 3 vs Reaction Solution 2), 0, 60, 120 minutes): not observed
